Laboratory results taken from ChEMBL document CHEMBL3991601, “The target landscape of clinical kinase drugs” (Science, 2017).
pKd: −log10 of the molar value. Calls of active or inactive are those of the source.

Key:
[1] = target: T1, Mitogen-activated protein kinase 15 (Homo sapiens, UniProt Q8TD08)
T1 sequence (Q8TD08 whole entry): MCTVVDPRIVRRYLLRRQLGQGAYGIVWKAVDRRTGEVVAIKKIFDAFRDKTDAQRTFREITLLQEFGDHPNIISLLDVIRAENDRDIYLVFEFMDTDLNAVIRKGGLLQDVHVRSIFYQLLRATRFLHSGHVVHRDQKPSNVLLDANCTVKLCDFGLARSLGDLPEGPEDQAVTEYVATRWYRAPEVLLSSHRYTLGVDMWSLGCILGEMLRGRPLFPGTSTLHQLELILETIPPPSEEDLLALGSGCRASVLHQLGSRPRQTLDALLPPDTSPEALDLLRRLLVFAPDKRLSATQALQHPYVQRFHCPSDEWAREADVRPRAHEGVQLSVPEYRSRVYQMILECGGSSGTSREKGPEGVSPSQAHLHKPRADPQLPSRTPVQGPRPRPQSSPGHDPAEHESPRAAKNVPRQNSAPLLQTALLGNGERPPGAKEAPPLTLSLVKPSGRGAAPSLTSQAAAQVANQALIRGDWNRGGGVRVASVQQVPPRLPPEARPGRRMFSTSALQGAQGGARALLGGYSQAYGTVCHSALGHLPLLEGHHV

[2] = target: T2, Bone morphogenetic protein receptor type-2 (Homo sapiens, UniProt Q13873)
T2 sequence (Q13873 whole entry): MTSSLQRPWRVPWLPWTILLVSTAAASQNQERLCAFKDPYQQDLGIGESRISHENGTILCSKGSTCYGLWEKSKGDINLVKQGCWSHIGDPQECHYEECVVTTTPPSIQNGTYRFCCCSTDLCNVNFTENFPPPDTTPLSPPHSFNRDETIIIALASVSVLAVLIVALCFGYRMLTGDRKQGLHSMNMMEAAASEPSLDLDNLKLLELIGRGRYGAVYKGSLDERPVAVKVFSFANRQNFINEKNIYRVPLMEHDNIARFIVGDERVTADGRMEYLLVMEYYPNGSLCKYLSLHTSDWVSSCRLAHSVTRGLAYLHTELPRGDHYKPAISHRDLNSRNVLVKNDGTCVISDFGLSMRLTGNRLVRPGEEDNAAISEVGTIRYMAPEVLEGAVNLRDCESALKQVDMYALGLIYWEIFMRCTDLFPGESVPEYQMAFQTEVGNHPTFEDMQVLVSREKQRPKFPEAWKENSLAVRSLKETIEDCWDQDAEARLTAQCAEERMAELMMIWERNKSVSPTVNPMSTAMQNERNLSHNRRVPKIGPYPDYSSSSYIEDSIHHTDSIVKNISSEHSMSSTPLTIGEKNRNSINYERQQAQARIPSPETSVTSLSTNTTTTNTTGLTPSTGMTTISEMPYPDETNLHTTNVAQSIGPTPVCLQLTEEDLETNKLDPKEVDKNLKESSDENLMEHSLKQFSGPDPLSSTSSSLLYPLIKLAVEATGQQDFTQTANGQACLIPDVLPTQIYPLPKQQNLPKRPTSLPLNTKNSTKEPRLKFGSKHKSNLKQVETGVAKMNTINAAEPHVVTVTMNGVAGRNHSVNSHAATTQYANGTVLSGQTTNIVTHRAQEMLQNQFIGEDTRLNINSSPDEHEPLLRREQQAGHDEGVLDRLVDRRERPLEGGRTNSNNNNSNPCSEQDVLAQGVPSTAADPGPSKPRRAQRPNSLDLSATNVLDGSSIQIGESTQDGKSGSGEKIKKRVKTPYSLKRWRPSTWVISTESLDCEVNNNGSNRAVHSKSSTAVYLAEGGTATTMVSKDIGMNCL

[3] = target: T3, Serine/threonine-protein kinase Nek2 (Homo sapiens, UniProt P51955)
T3 sequence (P51955 whole entry): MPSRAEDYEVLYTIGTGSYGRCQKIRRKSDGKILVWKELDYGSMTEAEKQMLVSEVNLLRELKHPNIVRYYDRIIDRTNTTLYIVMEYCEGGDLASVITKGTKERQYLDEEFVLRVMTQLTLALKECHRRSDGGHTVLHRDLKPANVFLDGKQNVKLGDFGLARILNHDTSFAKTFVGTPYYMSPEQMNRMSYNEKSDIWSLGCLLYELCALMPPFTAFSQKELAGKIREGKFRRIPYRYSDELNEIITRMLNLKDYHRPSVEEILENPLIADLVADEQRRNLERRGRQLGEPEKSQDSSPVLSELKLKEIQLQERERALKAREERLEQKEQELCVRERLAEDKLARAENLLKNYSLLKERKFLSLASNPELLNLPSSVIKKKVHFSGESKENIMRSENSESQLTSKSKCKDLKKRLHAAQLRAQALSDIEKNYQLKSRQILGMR

[4] = target: T4, Glycogen phosphorylase, liver form (Homo sapiens, UniProt P06737); assay type: subcellular, K-562, COLO 205, SK-N-BE(2) and MV-4-11, Cell lysate; conditions: read-out: Kd apparent
T4 sequence (P06737 whole entry): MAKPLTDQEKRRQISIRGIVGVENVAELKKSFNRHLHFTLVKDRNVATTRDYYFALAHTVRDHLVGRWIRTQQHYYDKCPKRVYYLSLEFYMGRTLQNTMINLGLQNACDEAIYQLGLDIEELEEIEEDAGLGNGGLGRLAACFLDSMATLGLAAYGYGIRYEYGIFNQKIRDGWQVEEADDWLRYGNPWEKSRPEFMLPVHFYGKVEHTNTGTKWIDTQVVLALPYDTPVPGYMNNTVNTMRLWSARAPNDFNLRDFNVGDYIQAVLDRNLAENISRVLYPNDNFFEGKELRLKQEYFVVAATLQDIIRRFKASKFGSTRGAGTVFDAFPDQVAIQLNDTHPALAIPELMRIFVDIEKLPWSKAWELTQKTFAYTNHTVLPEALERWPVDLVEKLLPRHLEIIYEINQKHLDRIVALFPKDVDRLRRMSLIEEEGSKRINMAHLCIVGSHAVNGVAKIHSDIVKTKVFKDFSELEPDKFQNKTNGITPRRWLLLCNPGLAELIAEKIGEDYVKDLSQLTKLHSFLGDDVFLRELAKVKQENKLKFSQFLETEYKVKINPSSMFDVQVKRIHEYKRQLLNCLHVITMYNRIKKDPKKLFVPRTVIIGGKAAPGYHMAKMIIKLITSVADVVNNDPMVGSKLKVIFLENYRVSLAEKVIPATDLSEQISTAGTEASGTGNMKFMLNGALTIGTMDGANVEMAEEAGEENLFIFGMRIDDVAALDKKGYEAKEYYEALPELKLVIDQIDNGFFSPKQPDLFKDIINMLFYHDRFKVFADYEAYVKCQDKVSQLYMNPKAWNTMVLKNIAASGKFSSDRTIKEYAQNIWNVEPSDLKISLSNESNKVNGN

[5] = target: cAMP-dependent protein kinase type II-alpha regulatory subunit (Homo sapiens, UniProt P13861)
cAMP-dependent protein kinase type II-alpha regulatory subunit, sequence (P13861 whole entry): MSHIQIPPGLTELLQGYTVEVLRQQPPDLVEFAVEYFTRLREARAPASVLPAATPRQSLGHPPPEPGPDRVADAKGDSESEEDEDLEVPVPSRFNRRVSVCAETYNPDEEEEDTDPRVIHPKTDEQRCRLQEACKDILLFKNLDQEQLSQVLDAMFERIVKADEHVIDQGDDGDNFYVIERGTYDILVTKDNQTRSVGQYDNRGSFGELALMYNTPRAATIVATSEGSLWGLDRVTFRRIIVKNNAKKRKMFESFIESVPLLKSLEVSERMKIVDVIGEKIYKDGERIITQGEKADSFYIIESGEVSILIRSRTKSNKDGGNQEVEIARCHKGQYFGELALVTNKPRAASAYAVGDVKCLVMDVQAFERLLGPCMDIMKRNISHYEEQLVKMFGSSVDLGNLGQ
Also: in the data inactive means no Kd found up to 30 µM.

Structure (SMILES)	Kd [3]	Kd [4]	Kd [5]	Kd [2]	Kd [1]	pKd [2]
COCCN1CCN(Cc2ccc(-c3n[nH]c4c3C(=O)c3c(NC(=O)NN5CCOCC5)cccc3-4)cc2)CC1 [RGB-286638]	> 30 µM (inactive)	> 30 µM (inactive)	> 30 µM (inactive)	–	> 30 µM (inactive)	6.82
O=C(O)c1ccc2c(c1)nc(Nc1cccc(Cl)c1)c1ccncc12 [SILMITASERTIB]	> 30 µM (inactive)	> 30 µM (inactive)	> 30 µM (inactive)	1.06 µM (active)	> 30 µM (inactive)	–
C=CCN(/C=C1/C(=O)O[C@H](COC)[C@@]2(C)C1=C(O)C(=O)C1=C2[C@H](OC(C)=O)C[C@]2(C)C(=O)CC[C@@H]12)CC=C [SONOLISIB]	> 30 µM (inactive)	> 30 µM (inactive)	> 30 µM (inactive)	> 30 µM (inactive)	> 30 µM (inactive)	–
CN1CCN(c2nc(C3=C(c4c[nH]c5ccccc45)C(=O)NC3=O)c3ccccc3n2)CC1 [SOTRASTAURIN]	> 30 µM (inactive)	> 30 µM (inactive)	> 30 µM (inactive)	> 30 µM (inactive)	> 30 µM (inactive)	–
O[C@H]1CC[C@H](Nc2ncc3nc(Nc4c(F)cc(F)cc4F)n([C@H]4CCOC4)c3n2)CC1 [TANZISERTIB]	> 30 µM (inactive)	> 30 µM (inactive)	> 30 µM (inactive)	> 30 µM (inactive)	> 30 µM (inactive)	–
CNC(=O)c1cc(COc2nnc(Nc3ccc(Cl)cc3)c3ccoc23)ccn1 [TELATINIB]	> 30 µM (inactive)	> 30 µM (inactive)	> 30 µM (inactive)	> 30 µM (inactive)	> 30 µM (inactive)	–
Cc1cc(-c2cc(OC(=O)c3ccccc3)ccc2Cl)cc2nnc(Nc3ccc(OCCN4CCCC4)cc3)nc12 [TG100-801]	> 30 µM (inactive)	> 30 µM (inactive)	> 30 µM (inactive)	> 30 µM (inactive)	> 30 µM (inactive)	–
C[C@@H]1COC(Nc2ccc3ncnc(Nc4ccc(OCc5nccs5)c(Cl)c4)c3c2)=N1 [VARLITINIB]	> 30 µM (inactive)	> 30 µM (inactive)	> 30 µM (inactive)	> 30 µM (inactive)	> 30 µM (inactive)	–
CNC(=O)c1cccc(-c2ccc3c(N4CCOC[C@@H]4C)nc(N4CCOC[C@@H]4C)nc3n2)c1 [VISTUSERTIB]	> 30 µM (inactive)	> 30 µM (inactive)	> 30 µM (inactive)	> 30 µM (inactive)	> 30 µM (inactive)	–
COc1cc2ncnc(Nc3ccc(O)cc3)c2cc1OC [WHI-P131]	> 30 µM (inactive)	> 30 µM (inactive)	> 30 µM (inactive)	> 30 µM (inactive)	> 30 µM (inactive)	–

The next lines start with results.

Kd [3]	Kd [4]	Kd [5]	Kd [2]	Structure (SMILES)	Kd [1]	pKd [2]
> 30 µM (inactive)	> 30 µM (inactive)	> 30 µM (inactive)	> 30 µM (inactive)	CC(C)(O)CC(=O)NCCn1ccc2ncnc(Nc3ccc(Oc4cccc(C(F)(F)F)c4)c(Cl)c3)c21 [TAK-285]	> 30 µM (inactive)	–
> 30 µM (inactive)	> 30 µM (inactive)	> 30 µM (inactive)	> 30 µM (inactive)	Cc1cc(C(=O)Nc2cc(Oc3ccc4nc(NC(=O)C5CC5)cn4n3)ccc2C)n(C)n1 [TAK-593]	> 30 µM (inactive)	–
> 30 µM (inactive)	> 30 µM (inactive)	> 30 µM (inactive)	> 30 µM (inactive)	Cn1c(=O)c(F)c(Nc2ccc(I)cc2F)c2c(=O)n(C[C@@H](O)CO)cnc21 [TAK-733]	> 30 µM (inactive)	–
> 30 µM (inactive)	> 30 µM (inactive)	> 30 µM (inactive)	> 30 µM (inactive)	NC(=O)c1ccc(N(C(N)=O)c2c(F)cccc2F)nc1-c1ccc(F)cc1F [VX-702]	> 30 µM (inactive)	–
